Source: patent US8461150B2, “Chalcone linked pyrrolo[2,1-c][1, 4]benzodiazepine hybrids as potential anticancer agents and process for the preparation thereof” (Council of Scientific & Industrial Research, priority 2008, dated 2013)

What was measured:
[1] = tested on: human tumour cell lines; assay: In vitro cytotoxicity, mean graph midpoints (MG_MID) over human tumour cell lines; type: cell-based; settings: for Log10LC50 mean graph midpoint (MG_MID): 50% cell death; for Log10LC50 mean graph midpoint (MG_MID) / Log10GI50 mean graph midpoint (MG_MID) / Log10TGI mean graph midpoint (MG_MID): human tumour cell lines, 48 h exposure, SRB; for cytotoxicity against some cancer cell lines: in words, refers to Table 3; for Log10TGI mean graph midpoint (MG_MID): total cell growth inhibition
Description: (§1) Biological Activity: The in vitro cell line studies were carried out at the National Cancer Institute, Maryland, USA.
(§2) 6b, 6c, 6g, 10a and 10b were evaluated for in vitro anticancer activity against sixty human tumour cells derived from nine cancer types (leukemia, non-small-cell lung, colon, CNS, melanoma, ovarian, prostate, renal and breast cancer) as shown in (Table 1 and 2). For the compound, dose response curves for each cell line were measured at a minimum of five concentrations at 10 fold dilutions. A protocol of 48 h continuous drug exposure was used and a sulforhodamine B (SRB) protein assay was used to estimate cell viability or growth. The concentration causing 50% cell growth inhibition (GI50), total cell growth inhibition (TGI 0% growth) and 50% cell death (LC50, −50% growth) compared with the control was calculated.

[2] = tested on: 786-0 (Renal); assay: Cytotoxicity in selected cancer cell lines (SRB, 48 h); type: cell-based, human
Description: as §1, §2
(§3) Each cancer type represents the average of six to nine different cancer cell lines. In vitro evaluation of cytotoxic activity. The compound 6b, 6c, 6g 10a and 10b were evaluated for in vitro anticancer activity against nine human tumour cells derived from six cancer types (leukemia, colon, prostate, melanoma, ovarian, lung, cervix and breast cancer) as shown in Table 3. […] Compounds 6b, 6c, 6g, 10a and 10b have been evaluated for their in vitro cytotoxicity in selected human cancer cell lines of colon (Colo205), lung (NCI-H522, NCI-H226), colon (colo-205), prostate (DU145, PC3), ovarian (IGROV1, HT1080), and breast (MDA-MB-435, Zr-75-1), melanoma (LOXMIVI, VACC-62, SK-MEL-5) origin. A protocol of 48 h continuous drug exposure has been used and an […] has been used to estimate cell viability or growth. The results are expressed as percent of cell growth determined relative to that of untreated control cells

[3] = tested on: A498 (Renal); assay: as above; type: cell-based, human
Description: as §1, §2, §3

[4] = tested on: ACHN (Renal); assay: as above; type: cell-based, human
Description: as §1, §2, §3

[5] = tested on: CAKI-1 (Renal); assay: as above; type: cell-based, human
Description: as §1, §2, §3

[6] = tested on: CCRF-CEM (Leukemia); assay: as above; type: cell-based, human
Description: as §1, §2, §3

[7] = tested on: HCT-116 (Colon); assay: as above; type: cell-based, human
Description: as §1, §2, §3

[8] = tested on: HCT-15 (Colon); assay: as above; type: cell-based, human
Description: as §1, §2, §3

[9] = tested on: HL-60(TB) (Leukemia); assay: as above; type: cell-based, human
Description: as §1, §2, §3

[10] = tested on: LOX IMVI (Melanoma); assay: as above; type: cell-based, human
Description: as §1, §2, §3

[11] = tested on: M14 (Melanoma); assay: as above; type: cell-based, human
Description: as §1, §2, §3

[12] = tested on: MALME-3M (Melanoma); assay: as above; type: cell-based, human
Description: as §1, §2, §3

[13] = tested on: MDA-MB-231/ATCC (Breast); assay: as above; type: cell-based, human
Description: as §1, §2, §3

[14] = tested on: NCI-H226 (Non-small cell lung); assay: as above; type: cell-based, human
Description: as §1, §2, §3

[15] = tested on: NCI-H23 (Non-small cell lung); assay: as above; type: cell-based, human
Description: as §1, §2, §3

[16] = tested on: NCI-H522 (Non-small cell lung); assay: as above; type: cell-based, human
Description: as §1, §2, §3

[17] = tested on: NCI/ADR-RES (Breast); assay: as above; type: cell-based, human
Description: as §1, §2, §3

[18] = tested on: OVCAR-3 (Ovarian); assay: as above; type: cell-based, human
Description: as §1, §2, §3

[19] = tested on: RPMI-8226 (Leukemia); assay: as above; type: cell-based, human
Description: as §1, §2, §3

[20] = tested on: SF-539 (CNS); assay: as above; type: cell-based, human
Description: as §1, §2, §3

[21] = tested on: SK-MEL-5 (Melanoma); assay: as above; type: cell-based, human
Description: as §1, §2, §3

[22] = tested on: SW-620 (Colon); assay: as above; type: cell-based, human
Description: as §1, §2, §3

[23] = tested on: TK-10 (Renal); assay: as above; type: cell-based, human
Description: as §1, §2, §3

[24] = tested on: U251 (CNS); assay: as above; type: cell-based, human
Description: as §1, §2, §3

[25] = tested on: UACC-257 (Melanoma); assay: as above; type: cell-based, human
Description: as §1, §2, §3

[26] = tested on: UACC-62 (Melanoma); assay: as above; type: cell-based, human
Description: as §1, §2, §3

[27] = tested on: UO-31 (Renal); assay: as above; type: cell-based, human
Description: as §1, §2, §3

[28] = tested on: duplex-form calf thymus DNA (CT-DNA); assay: Thermal denaturation studies with calf thymus DNA; type: binding; settings: [PBD]:[DNA] molar ratio 1:5, CT-DNA 100 μM, ligand 20 μM, pH 7.00; for ΔTμ (° C.) after incubation at 37 °C. for 0 h: 0 h incubation; for ΔTμ (° C.) after incubation at 37 °C. for 18 h: 18 h incubation
Description: These compounds have also been subjected to thermal denaturation studies with duplex-form calf thymus DNA (CT-DNA) using an modification of a reported procedure. Working solutions in aqueous buffer (10 mM NaH2PO4/Na2HPO4, 1 mM Na2EDTA, pH 7.00+0.01) containing CT-DNA (100 μm in phosphate) and the PBD (20 μm) have been prepared by addition of concentrated PBD solutions in DMSO to obtain a fixed [PBD]/[DNA] molar ratio of 1:5. The DNA-PBD solutions have been incubated at 37° C. for 0 and 18 h prior to analysis. Samples have been monitored at 260 nm using a Beckman DU-800 spectrophotometer fitted with high performance temperature controller, and heated at 1° C. min^−1 in the 40-110° C. range. DNA helix→coil transition temperatures (Tm) have been obtained from the maxima in the d(A260)/d T derivative plots. Drug-induced alterations in DNA melting behavior are given by: ΔTm=Tm(DNA+PBD)−Tm(DNA alone), where the Tm value for the PBD-free CT-DNA is 68.5±0.01.

COc1cc(C=CC(=O)c2c(C)nc3ccccc3c2C)ccc1OCCCOc1cc2c(cc1OC)C(=O)N1CCC[C@H]1C=N2 [10a, 7-Methoxy-8-{3-[3-(4-hydroxy-3-methoxyphenyl)-1-(2,4-dimethyl-3-quinolyl)-2-propen-1-one]propyl}-oxy-(11aS)-1,2,3,11a-5H-pyrrolo[2,1-c][1,4]benzodiazepin-5-one]
Log10LC50 mean graph midpoint (MG_MID) [1]: −4.43 | Log10GI50 mean graph midpoint (MG_MID) [1]: −6.94 | cytotoxicity against some cancer cell lines [1]: promising cytotoxicity | Log10TGI mean graph midpoint (MG_MID) [1]: −6.90 | GI50 [2]: 17.3 µM | GI50 [3]: 20.1 µM | GI50 [4]: 32 µM | GI50 [5]: 15.8 µM | GI50 [6]: 12.5 µM | GI50 [7]: 21 µM | GI50 [8]: 29.7 µM | GI50 [9]: 25.2 µM | GI50 [10]: 18.2 µM | GI50 [11]: 14.5 µM | GI50 [12]: 24.2 µM | GI50 [13]: 19.9 µM | GI50 [14]: 10.8 µM | GI50 [15]: 24.1 µM | GI50 [16]: 10.8 µM | GI50 [17]: 17.6 µM | GI50 [18]: 24.9 µM | GI50 [19]: 15 µM | GI50 [20]: 30.3 µM | GI50 [21]: 20.9 µM | GI50 [22]: 26.6 µM | GI50 [23]: 33.2 µM | GI50 [24]: 19.8 µM | GI50 [25]: 22.9 µM | GI50 [26]: 15.1 µM | GI50 [27]: 21.6 µM | ΔTμ (° C.) after incubation at 37 °C. for 0 h [28]: 4.0 °C | ΔTμ (° C.) after incubation at 37 °C. for 18 h [28]: 4.6 °C

COc1cc(C=CC(=O)c2c(C)nc3ccccc3c2C)ccc1OCCCCOc1cc2c(cc1OC)C(=O)N1CCC[C@H]1C=N2 [10b, 7-Methoxy-8-{4-[3-(4-hydroxy-3-methoxyphenyl)-1-(2,4-dimethyl-3-quinolyl)-2-propen-1-one]butyl}-oxy-(11aS)-1,2,3,11a-5H-pyrrolo[2,1-c][1,4]benzodiazepin-5-one]
Log10LC50 mean graph midpoint (MG_MID) [1]: −4.46 | Log10GI50 mean graph midpoint (MG_MID) [1]: −6.86 | cytotoxicity against some cancer cell lines [1]: promising cytotoxicity | Log10TGI mean graph midpoint (MG_MID) [1]: −6.94 | GI50 [2]: 14.9 µM | GI50 [3]: 19.5 µM | GI50 [4]: 36.1 µM | GI50 [5]: 12.9 µM | GI50 [6]: 13.4 µM | GI50 [7]: 14.6 µM | GI50 [8]: 18.4 µM | GI50 [9]: 24.5 µM | GI50 [10]: 15 µM | GI50 [11]: 18.8 µM | GI50 [12]: 36.2 µM | GI50 [13]: 14.2 µM | GI50 [14]: 10.1 µM | GI50 [15]: 19.5 µM | GI50 [16]: 9 µM | GI50 [17]: 16.9 µM | GI50 [18]: 26.3 µM | GI50 [19]: 13.8 µM | GI50 [20]: 33.7 µM | GI50 [21]: 23.3 µM | GI50 [22]: 25.9 µM | GI50 [23]: 31.4 µM | GI50 [24]: 15.7 µM | GI50 [25]: 15.9 µM | GI50 [26]: 22.5 µM | GI50 [27]: 15.2 µM | ΔTμ (° C.) after incubation at 37 °C. for 0 h [28]: 4.3 °C | ΔTμ (° C.) after incubation at 37 °C. for 18 h [28]: 4.9 °C
